In publication PMC11425660, “[^186Re]Re- and [^99mTc]Tc-Tricarbonyl Metal Complexes with 1,4,7-Triazacyclononane-Based Chelators Bearing Amide, Alcohol, or Ketone Pendent Groups” (ACS Omega, 2024):

Experiments:
[1] = storage stability (observation); type: physicochemical
[2] = solubility in solvents (observation); type: physicochemical; conditions: solvents as named in the value

Row | Compound | storage stability ([1]; stored at 4 °C) | solubility [2] | storage stability ([1]; room temperature)
1 | O=C(CN1CCN(CCO)CCN(CCO)CC1)NCc1ccccc1 [Chelator 3, N-Benzyl-2-(4,7-bis(2-hydroxyethyl)-1,4,7,-triazonan-1-yl)acetamide] | stable when stored at 4 °C for several weeks | soluble in water, methanol, acetonitrile, and dimethyl sulfoxide | 
2 | CC(=O)CN1CCN(CC(C)=O)CCN(CC(=O)NCc2ccccc2)CC1 [Chelator 4, N-Benzyl-2-(4,7-bis(2-oxopropyl)-1,4,7-triazonan-1-yl)acetamide] | stable at 4 °C for several weeks | soluble in dimethyl sulfoxide | 
3 | O=C(O)CN1CCN(CC(=O)O)CCN(CC(=O)NCc2ccccc2)CC1 [Chelator 5, 2,2′-(7-(2-(Benzylamino)-2-oxoethyl)-1,4,7-triazonane-1,4-diyl)diacetic Acid] |  | soluble in water, methanol, acetonitrile, and dimethyl sulfoxide | stable at room temperature for several months
4 | NC(=O)CN1CCN(CC(N)=O)CCN(CC(=O)NCc2ccccc2)CC1 [Chelator 2, 2,2′-(7-(2-(Benzylamino)-2-oxoethyl)-1,4,7-triazonane-1,4-diyl)diacetamide] | stable when stored at 4 °C for several weeks | soluble in water, methanol, acetonitrile, and dimethyl sulfoxide | 
